Results published in PMC9057277 (RSC Advances, 2020).
pIC50: −log10 of the molar value. Like-named read-outs stand apart in the source and are kept apart here.

Legend:
[1] = target: 3-phosphoinositide-dependent kinase 1 (PDK1); conditions: cited from earlier work
protein kinase B (PKB) = target: protein kinase B (PKB); set-up: method as in PMID 16757698, PMID 14973075; conditions: ref 50 and 53; cited from earlier work
[2] = target: phosphodiesterase-5 (PDE51A); set-up: method as in PMID 17383621; conditions: ref 54; cited from earlier work
[3] = target: sarcoplasmic/ER Ca2+ ATPase (SERCA); set-up: method as in PMID 23875171, PMID 12076251; conditions: ref 49 and 55; cited from earlier work
hCA-IX = system: hCA-IX; set-up: method as in PMID 23875171, PMID 16290146; conditions: ref 49 and 56; cited from earlier work
hCA-XII = system: hCA-XII; set-up: method as in PMID 23875171, PMID 16290146; conditions: ref 49 and 56; cited from earlier work
CYP3A4 = system: CYP3A4; set-up: method as in PMID 10681375, PMID 22336956; conditions: ref 12,51; cited from earlier work
[4] = Stability towards liver microsomes of mice
[5] = set-up: method as in PMID 30072617; conditions: male baboon, 90 min p.i. ref 18; cited from earlier work
log D7.4 by HPLC method = format: physicochemical; conditions: HPLC retention on ODP-50 4B column (Shodex Asahipak); pH 7.4, HPLC-based method
[6] = Ex vivo biodistribution in healthy rats; conditions: for Biodistribution BAT: brown adipose tissue; for Biodistribution BAT / Biodistribution adrenals / Biodistribution blood / Biodistribution brain / Biodistribution femur / Biodistribution harderian gland / Biodistribution heart / Biodistribution intestine / Biodistribution kidneys / Biodistribution liver / Biodistribution lung / Biodistribution muscle / Biodistribution pancreas / Biodistribution skin & hair / Biodistribution spleen / Biodistribution stomach / Biodistribution testes / Biodistribution thymus / Biodistribution thyroid gland / Biodistribution urine (calc.) / Biodistribution femur (femur uptake, 18F-defluorination) / Biodistribution WAT: i.v., n = 8, mean ± SD; for Biodistribution WAT: white adipose tissue
[7] = Metabolic stability in vivo: blood clearance, blood components, radiometabolites; set-up: species or system male Wistar rats; conditions: for half-life: male, Wistar, rat, arterial blood, iv, 70 MBq, i.v., arterial blood samples; for half-life / Intact compound in blood plasma: rats; for Radioactivity distribution in blood components: erythrocytes / Radioactivity distribution in blood components: plasma / Radioactivity distribution in blood components: plasma supernatant / Radioactivity distribution in blood components: plasma pellet (bound to plasma proteins) / Radioactivity distribution in blood components: plasma pellet: rat blood; for Radioactivity distribution in blood components: plasma pellet (bound to plasma proteins): + TCA precipitation; for Intact compound in blood plasma: radio-HPLC
[8] = read-out: t1/2 distribution (blood clearance of intact compound)
[9] = read-out: t1/2 elimination (blood clearance of intact compound)

Structure (SMILES): Cc1ccc(-c2cc(C(F)(F)F)nn2-c2ccc(S(N)(=O)=O)cc2)cc1 [Celecoxib]
- pIC50 ([1]; ref 52): 5.46
- pIC50 ([1]; ref 53): 4.32
- pIC50 (protein kinase B (PKB)): 4.55
- pIC50 [2]: 4.80
- pIC50 [3]: 4.46
- pIC50 (hCA-IX): 7.80
- pIC50 (hCA-XII): 7.74
- extent of metabolism to the hydroxyl form by CYP3A4 (CYP3A4): < 25%

Structure (SMILES): C[C@]12CC[C@H]3[C@@H](CCC4=CC(=O)CC[C@@]43C)[C@@H]1CC[C@@H]2O [Testosteron, reference compound]
- conversion by mouse liver microsomes (positive control for oxidation) [4]: Complete conversion

Structure (SMILES): [11CH3]c1ccc(-c2cc(C(F)(F)F)nn2-c2ccc(S(N)(=O)=O)cc2)cc1 [[^11C]celecoxib]
- intact radiotracer in blood [5]: 17%

Structure (SMILES): Cc1ccc(-c2cc(C[18F])nn2-c2ccc(S(C)(=O)=O)cc2)cc1 [[^18F]5a, 3-([^18F]fluoromethyl)-1-[4-(methylsulfonyl)phenyl]-5-(p-tolyl)-1H-pyrazole]
- chromatographic logD (log D7.4 by HPLC method): 2.72
- liver-to-bladder ratio (hepatobiliary vs renal excretion) ([6]; 60 min p.i.): 2.3
- Biodistribution BAT ([6]; 5 min p.i.): 2.21 ± 0.91 SUV
- Biodistribution BAT ([6]; 60 min p.i.): 1.13 ± 0.29 SUV
- Biodistribution adrenals ([6]; 5 min p.i.): 2.25 ± 1.19 SUV
- Biodistribution blood ([6]; 5 min p.i.): 0.46 ± 0.15 SUV
- Biodistribution brain ([6]; 5 min p.i.): 0.46 ± 0.14 SUV
- Biodistribution femur ([6]; 5 min p.i.): 0.96 ± 0.53 SUV
- Biodistribution harderian gland ([6]; 5 min p.i.): 1.5 ± 0.6 SUV
- Biodistribution heart ([6]; 5 min p.i.): 0.79 ± 0.23 SUV
- Biodistribution intestine ([6]; 5 min p.i.): 6.78 ± 2.69 %ID
- Biodistribution kidneys ([6]; 5 min p.i.): 1.53 ± 0.49 SUV
- Biodistribution liver ([6]; 5 min p.i.): 3.84 ± 1.52 SUV
- Biodistribution lung ([6]; 5 min p.i.): 0.89 ± 0.38 SUV
- Biodistribution muscle ([6]; 5 min p.i.): 0.35 ± 0.18 SUV
- Biodistribution pancreas ([6]; 5 min p.i.): 0.97 ± 0.27 SUV
- Biodistribution skin & hair ([6]; 5 min p.i.): 0.97 ± 0.31 SUV
- Biodistribution spleen ([6]; 5 min p.i.): 0.53 ± 0.24 SUV
- Biodistribution stomach ([6]; 5 min p.i.): 0.87 ± 0.65 %ID
- Biodistribution testes ([6]; 5 min p.i.): 0.34 ± 0.16 SUV
- Biodistribution thymus ([6]; 5 min p.i.): 0.76 ± 0.18 SUV
- Biodistribution thyroid gland ([6]; 5 min p.i.): 0.71 ± 0.4 SUV
- Biodistribution urine (calc.) ([6]; 5 min p.i.): 3.32 ± 4.35 %ID
- Biodistribution adrenals ([6]; 60 min p.i.): 1.85 ± 1.91 SUV
- Biodistribution blood ([6]; 60 min p.i.): 0.12 ± 0.04 SUV
- Biodistribution brain ([6]; 60 min p.i.): 0.12 ± 0.04 SUV
- Biodistribution femur (femur uptake, 18F-defluorination) ([6]; 60 min p.i.): 4.1 ± 0.6 SUV
- Biodistribution harderian gland ([6]; 60 min p.i.): 0.64 ± 0.28 SUV
- Biodistribution heart ([6]; 60 min p.i.): 0.15 ± 0.02 SUV
- Biodistribution intestine ([6]; 60 min p.i.): 19.43 ± 2.27 %ID
- Biodistribution kidneys ([6]; 60 min p.i.): 0.36 ± 0.19 SUV
- Biodistribution liver ([6]; 60 min p.i.): 0.78 ± 0.2 SUV
- Biodistribution lung ([6]; 60 min p.i.): 0.19 ± 0.06 SUV
- Biodistribution muscle ([6]; 60 min p.i.): 0.21 ± 0.1 SUV
- Biodistribution pancreas ([6]; 60 min p.i.): 0.44 ± 0.28 SUV
- Biodistribution skin & hair ([6]; 60 min p.i.): 0.39 ± 0.2 SUV
- Biodistribution spleen ([6]; 60 min p.i.): 0.18 ± 0.07 SUV
- Biodistribution stomach ([6]; 60 min p.i.): 1.06 ± 0.42 %ID
- Biodistribution testes ([6]; 60 min p.i.): 0.27 ± 0.17 SUV
- Biodistribution thymus ([6]; 60 min p.i.): 0.28 ± 0.11 SUV
- Biodistribution thyroid gland ([6]; 60 min p.i.): 0.67 ± 0.37 SUV
- Biodistribution urine (calc.) ([6]; 60 min p.i.): 8.55 ± 2.53 %ID
- Biodistribution WAT ([6]; 5 min p.i.): 1.45 ± 0.53 SUV
- Biodistribution WAT ([6]; 60 min p.i.): 1.67 ± 0.23 SUV
- half-life [7, 8]: 0.6 min
- half-life [7, 9]: 19.5 min
- Radioactivity distribution in blood components: erythrocytes ([7]; 60 min p.i., + TCA): 19%
- Radioactivity distribution in blood components: plasma ([7]; 60 min p.i., + TCA): 71%
- Radioactivity distribution in blood components: plasma supernatant ([7]; 60 min p.i., + TCA): 42%
- Radioactivity distribution in blood components: plasma pellet (bound to plasma proteins) ([7]; 60 min p.i.): 25%
- Radioactivity distribution in blood components: erythrocytes ([7]; 60 min p.i., - TCA): 17%
- Radioactivity distribution in blood components: plasma ([7]; 60 min p.i., - TCA): 67%
- Radioactivity distribution in blood components: plasma pellet ([7]; 60 min p.i., - TCA): 1%
- Radioactivity distribution in blood components: plasma supernatant ([7]; 60 min p.i., - TCA): 80%
- Intact compound in blood plasma ([7]; 20 min p.i.): 46%
- Intact compound in blood plasma ([7]; 60 min p.i.): 28%

Structure (SMILES): Cc1ccc(-c2cc(CC[18F])nn2-c2ccc(S(C)(=O)=O)cc2)cc1 [[^18F]5b]
- chromatographic logD (log D7.4 by HPLC method): 2.65
- liver-to-bladder ratio (hepatobiliary vs renal excretion) ([6]; 60 min p.i.): 2.6
- Biodistribution BAT ([6]; 5 min p.i.): 2.79 ± 0.85 SUV
- Biodistribution BAT ([6]; 60 min p.i.): 1.12 ± 0.22 SUV
- Biodistribution adrenals ([6]; 5 min p.i.): 2.95 ± 0.73 SUV
- Biodistribution blood ([6]; 5 min p.i.): 0.32 ± 0.02 SUV
- Biodistribution brain ([6]; 5 min p.i.): 0.5 ± 0.1 SUV
- Biodistribution femur ([6]; 5 min p.i.): 0.6 ± 0.05 SUV
- Biodistribution harderian gland ([6]; 5 min p.i.): 2.37 ± 0.19 SUV
- Biodistribution heart ([6]; 5 min p.i.): 0.86 ± 0.07 SUV
- Biodistribution intestine ([6]; 5 min p.i.): 14.17 ± 1.43 %ID
- Biodistribution kidneys ([6]; 5 min p.i.): 2 ± 0.42 SUV
- Biodistribution liver ([6]; 5 min p.i.): 3.37 ± 0.63 SUV
- Biodistribution lung ([6]; 5 min p.i.): 1.06 ± 0.06 SUV
- Biodistribution muscle ([6]; 5 min p.i.): 0.63 ± 0.09 SUV
- Biodistribution pancreas ([6]; 5 min p.i.): 1.6 ± 0.16 SUV
- Biodistribution skin & hair ([6]; 5 min p.i.): 0.98 ± 0.09 SUV
- Biodistribution spleen ([6]; 5 min p.i.): 0.84 ± 0.12 SUV
- Biodistribution stomach ([6]; 5 min p.i.): 1.35 ± 0.6 %ID
- Biodistribution testes ([6]; 5 min p.i.): 0.47 ± 0.05 SUV
- Biodistribution thymus ([6]; 5 min p.i.): 1.09 ± 0.23 SUV
- Biodistribution thyroid gland ([6]; 5 min p.i.): 1.01 ± 0.1 SUV
- Biodistribution urine (calc.) ([6]; 5 min p.i.): 0.02 ± 1.08 %ID
- Biodistribution adrenals ([6]; 60 min p.i.): 0.9 ± 0.13 SUV
- Biodistribution blood ([6]; 60 min p.i.): 0.08 ± 0.02 SUV
- Biodistribution brain ([6]; 60 min p.i.): 0.09 ± 0.01 SUV
- Biodistribution femur (femur uptake, 18F-defluorination) ([6]; 60 min p.i.): 1.0 ± 0.2 SUV
- Biodistribution harderian gland ([6]; 60 min p.i.): 1.08 ± 0.18 SUV
- Biodistribution heart ([6]; 60 min p.i.): 0.18 ± 0.02 SUV
- Biodistribution intestine ([6]; 60 min p.i.): 41.52 ± 3.98 %ID
- Biodistribution kidneys ([6]; 60 min p.i.): 0.57 ± 0.14 SUV
- Biodistribution liver ([6]; 60 min p.i.): 0.74 ± 0.14 SUV
- Biodistribution lung ([6]; 60 min p.i.): 0.25 ± 0.04 SUV
- Biodistribution muscle ([6]; 60 min p.i.): 0.23 ± 0.05 SUV
- Biodistribution pancreas ([6]; 60 min p.i.): 0.57 ± 0.14 SUV
- Biodistribution skin & hair ([6]; 60 min p.i.): 0.32 ± 0.09 SUV
- Biodistribution spleen ([6]; 60 min p.i.): 0.28 ± 0.08 SUV
- Biodistribution stomach ([6]; 60 min p.i.): 0.94 ± 0.58 %ID
- Biodistribution testes ([6]; 60 min p.i.): 0.24 ± 0.06 SUV
- Biodistribution thymus ([6]; 60 min p.i.): 0.23 ± 0.04 SUV
- Biodistribution thyroid gland ([6]; 60 min p.i.): 0.27 ± 0.06 SUV
- Biodistribution urine (calc.) ([6]; 60 min p.i.): 15.85 ± 2.16 %ID
- Biodistribution WAT ([6]; 5 min p.i.): 1.73 ± 0.84 SUV
- Biodistribution WAT ([6]; 60 min p.i.): 1.81 ± 0.8 SUV
- half-life [7, 8]: 1 min
- half-life [7, 9]: 20.7 min
- Radioactivity distribution in blood components: erythrocytes ([7]; 60 min p.i., + TCA): 23%
- Radioactivity distribution in blood components: plasma ([7]; 60 min p.i., + TCA): 71%
- Radioactivity distribution in blood components: plasma supernatant ([7]; 60 min p.i., + TCA): 35%
- Radioactivity distribution in blood components: plasma pellet (bound to plasma proteins) ([7]; 60 min p.i.): 29%
- Radioactivity distribution in blood components: erythrocytes ([7]; 60 min p.i., - TCA): 21%
- Radioactivity distribution in blood components: plasma ([7]; 60 min p.i., - TCA): 67%
- Radioactivity distribution in blood components: plasma pellet ([7]; 60 min p.i., - TCA): 1%
- Radioactivity distribution in blood components: plasma supernatant ([7]; 60 min p.i., - TCA): 72%
- Intact compound in blood plasma ([7]; 20 min p.i.): 35%
- Intact compound in blood plasma ([7]; 60 min p.i.): 30%
- glucuronidation in murine liver microsomes ([4]; oxidative conditions plus MgCl2 5 mM, alamethicin 50 μg/mL, UDPGA 5 mM): not observed
